Laboratory results reported in patent publication US20120135997A1, “PHARMACEUTICAL COMPOSITION COMPRISING A LACTAM OR BENZENESULFONAMIDE COMPOUND” (Shionogi & Co., Ltd., priority 2009, published 2012).

How the values were obtained:
Experiment in all cases: CYP inhibition test, pooled human liver microsomes
Format in all cases: in vitro ADME
[1] = target: CYP3A4 (Homo sapiens, UniProt P08684); design: from tissue; host or cells: pooled human liver microsomes; conditions: hydroxylation of terfenadine
CYP3A4, sequence (P08684 whole entry): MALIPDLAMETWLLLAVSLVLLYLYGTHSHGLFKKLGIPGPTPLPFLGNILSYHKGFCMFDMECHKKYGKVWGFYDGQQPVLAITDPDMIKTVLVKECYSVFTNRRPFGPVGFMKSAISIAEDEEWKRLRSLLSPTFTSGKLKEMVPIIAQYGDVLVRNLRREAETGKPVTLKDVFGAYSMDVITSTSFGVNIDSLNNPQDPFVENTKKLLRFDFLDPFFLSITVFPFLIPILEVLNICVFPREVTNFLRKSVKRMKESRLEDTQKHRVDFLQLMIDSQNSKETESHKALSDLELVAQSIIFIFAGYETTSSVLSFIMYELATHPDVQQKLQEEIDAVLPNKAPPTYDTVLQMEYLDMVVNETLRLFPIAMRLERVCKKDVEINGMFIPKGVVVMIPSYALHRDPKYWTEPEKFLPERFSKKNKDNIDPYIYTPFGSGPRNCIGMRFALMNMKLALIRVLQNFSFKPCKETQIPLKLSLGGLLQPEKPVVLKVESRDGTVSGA
Excerpt: Using commercially available pooled human liver microsomes and employing typical substrate metabolic reactions of 5 major species of human CYP enzymes (CYP1A2, 2C9, 2C19, 2D6, 3A4), namely, O-deethylation of 7-ethoxyresorufin (CYP1A2), methyl-hydroxylation of tolbutamide (CYP2C9), 4′-hydroxylation of mephenyloin (CYP2C19), O-demethylation of dextromethorphan (CYP2D6), and hydroxylation of terfenadine (CYP3A4), as indicator reactions, the degree of inhibition of each metabolite production by each test compound is evaluated. […] Centrifugation is performed for 15 minutes at 3000 rpm, and each metabolite in the centrifuged supernatant is quantified. Namely, resorufin (CYP1A2 metabolite) is quantified with a fluorescence multilabel counter, and hydroxylated tolbutamide (CYP2C9 metabolite), 4′-hydroxylated mephenyloin (CYP2C19 metabolite), dextrorphan (CYP2D6 metabolite) and alcoholized terfenadine (CYP3A4 metabolite) are quantified with LC/MS/MS. […] The remaining activity (%) at each concentration after adding the test compound solution is calculated, and the […] is calculated from the concentration and inhibition percentage by inverse estimation with the logistic model.

[2] = target: T1, CYP1A2 (Homo sapiens, UniProt P05177); conditions: O-deethylation of 7-ethoxyresorufin
T1 construct: from tissue; host or cells: pooled human liver microsomes
T1 sequence (P05177 1-516): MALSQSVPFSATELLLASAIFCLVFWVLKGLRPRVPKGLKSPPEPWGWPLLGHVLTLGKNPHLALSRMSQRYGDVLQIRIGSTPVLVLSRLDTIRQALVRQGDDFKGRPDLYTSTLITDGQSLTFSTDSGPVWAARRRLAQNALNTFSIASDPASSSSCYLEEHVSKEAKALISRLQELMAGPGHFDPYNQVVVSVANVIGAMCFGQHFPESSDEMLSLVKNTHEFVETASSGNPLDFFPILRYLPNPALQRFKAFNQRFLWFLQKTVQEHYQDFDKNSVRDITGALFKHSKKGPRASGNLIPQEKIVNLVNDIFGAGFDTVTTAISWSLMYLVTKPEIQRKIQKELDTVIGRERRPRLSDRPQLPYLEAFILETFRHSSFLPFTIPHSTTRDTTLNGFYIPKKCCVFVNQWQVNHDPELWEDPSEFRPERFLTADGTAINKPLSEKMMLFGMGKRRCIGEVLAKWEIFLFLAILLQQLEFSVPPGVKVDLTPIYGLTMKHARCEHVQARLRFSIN
Excerpt: (§1) Using commercially available pooled human liver microsomes and employing typical substrate metabolic reactions of 5 major species of human CYP enzymes (CYP1A2, 2C9, 2C19, 2D6, 3A4), namely, O-deethylation of 7-ethoxyresorufin (CYP1A2), methyl-hydroxylation of tolbutamide (CYP2C9), 4′-hydroxylation of mephenyloin (CYP2C19), O-demethylation of dextromethorphan (CYP2D6), and hydroxylation of terfenadine (CYP3A4), as indicator reactions, the degree of inhibition of each metabolite production by each test compound is evaluated. The reaction conditions are as follows: Substrate: 0.5 μmol/L of ethoxyresorufin (CYP1A2), 100 μmol/L of tolbutamide (CYP2C9), 50 μmol/L of S-mephenyloin (CYP2C19), 5 μmol/L of dextromethorphan (CYP2D6), 1 μmol/L of terfenadine (CYP3A4); Reaction time period: 15 minutes; Reaction temperature: 37° C.; Enzyme: pooled human liver microsomes 0.2 mg protein/mL; Test compound concentration: 1, 5, 10 and 20 μmol/L (four different concentrations). As a reaction solution, the respective five substrates, human liver microsomes, and test compound in the aforementioned amounts are added to a 50 mM Hepes buffer in a 96-well plate. NADPH, which is a coenzyme, is added thereto to start the indicator metabolic reaction. The reaction proceeds for 15 minutes at 37° C., and the solution of methanol/acetonitrile=1/1 (v/v) is added so as to terminate the reaction. Centrifugation is performed for 15 minutes at 3000 rpm, and each metabolite in the centrifuged supernatant is quantified. Namely, resorufin (CYP1A2 metabolite) is quantified with a fluorescence multilabel counter, and hydroxylated tolbutamide (CYP2C9 metabolite), 4′-hydroxylated mephenyloin (CYP2C19 metabolite), dextrorphan (CYP2D6 metabolite) and alcoholized terfenadine (CYP3A4 metabolite) are quantified with LC/MS/MS. Control (100%) is prepared by adding only DMSO, a solvent to dissolve the test compound, to the reaction system. The remaining activity (%) at each concentration after adding the test compound solution is calculated, and the […] is calculated from the concentration and inhibition percentage by inverse estimation with the logistic model.

[3] = target: T2, CYP2C9 (Homo sapiens, UniProt P11712); conditions: methyl-hydroxylation of tolbutamide
T2 construct: from tissue; host or cells: pooled human liver microsomes
T2 sequence (P11712 whole entry): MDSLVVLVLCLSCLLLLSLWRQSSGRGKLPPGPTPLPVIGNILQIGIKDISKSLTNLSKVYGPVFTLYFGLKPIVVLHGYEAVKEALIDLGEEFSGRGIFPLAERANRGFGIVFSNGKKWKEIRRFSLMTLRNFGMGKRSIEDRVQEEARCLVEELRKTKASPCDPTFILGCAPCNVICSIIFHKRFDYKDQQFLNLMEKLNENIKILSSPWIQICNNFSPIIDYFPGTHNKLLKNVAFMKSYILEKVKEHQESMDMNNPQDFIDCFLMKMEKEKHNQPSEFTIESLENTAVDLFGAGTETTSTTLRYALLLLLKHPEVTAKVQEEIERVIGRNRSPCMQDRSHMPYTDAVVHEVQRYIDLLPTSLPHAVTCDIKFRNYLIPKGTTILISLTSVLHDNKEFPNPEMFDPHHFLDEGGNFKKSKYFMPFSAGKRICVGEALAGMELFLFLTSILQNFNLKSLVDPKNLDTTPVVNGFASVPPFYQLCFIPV
Excerpt: as §1

[4] = target: T3, CYP2C19 (Homo sapiens, UniProt P33261); conditions: 4′-hydroxylation of mephenyloin
T3 construct: from tissue; host or cells: pooled human liver microsomes
T3 sequence (P33261 whole entry): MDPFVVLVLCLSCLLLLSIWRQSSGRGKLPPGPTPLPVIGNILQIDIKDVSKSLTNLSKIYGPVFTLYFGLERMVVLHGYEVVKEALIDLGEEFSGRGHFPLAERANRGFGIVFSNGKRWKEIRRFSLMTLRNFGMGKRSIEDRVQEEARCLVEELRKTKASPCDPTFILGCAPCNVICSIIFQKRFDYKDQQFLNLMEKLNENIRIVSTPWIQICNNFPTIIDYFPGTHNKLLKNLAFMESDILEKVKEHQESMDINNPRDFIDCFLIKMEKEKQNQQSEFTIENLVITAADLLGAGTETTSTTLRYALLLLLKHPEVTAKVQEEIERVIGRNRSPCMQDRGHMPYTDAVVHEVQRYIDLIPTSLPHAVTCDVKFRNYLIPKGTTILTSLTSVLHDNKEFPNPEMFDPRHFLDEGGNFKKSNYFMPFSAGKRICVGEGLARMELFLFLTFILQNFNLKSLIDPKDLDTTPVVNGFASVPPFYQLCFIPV
Excerpt: as §1

[5] = target: T4, CYP2D6 (Homo sapiens, UniProt P10635); conditions: O-demethylation of dextromethorphan
T4 construct: from tissue; host or cells: pooled human liver microsomes
T4 sequence (P10635 whole entry): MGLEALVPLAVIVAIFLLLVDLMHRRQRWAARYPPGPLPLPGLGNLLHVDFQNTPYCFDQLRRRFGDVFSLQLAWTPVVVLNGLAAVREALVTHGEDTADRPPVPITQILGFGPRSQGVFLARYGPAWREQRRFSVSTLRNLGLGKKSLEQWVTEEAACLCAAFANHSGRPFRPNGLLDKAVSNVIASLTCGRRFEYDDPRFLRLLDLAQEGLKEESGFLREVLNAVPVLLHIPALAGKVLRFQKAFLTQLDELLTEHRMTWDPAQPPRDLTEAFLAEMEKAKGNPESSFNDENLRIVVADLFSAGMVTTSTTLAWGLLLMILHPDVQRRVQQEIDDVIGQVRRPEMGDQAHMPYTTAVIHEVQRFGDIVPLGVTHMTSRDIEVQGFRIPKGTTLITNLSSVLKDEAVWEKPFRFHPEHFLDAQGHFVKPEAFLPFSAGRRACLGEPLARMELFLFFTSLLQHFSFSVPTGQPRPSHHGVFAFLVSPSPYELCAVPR
Excerpt: as §1

Measured: IC50

COc1cc(NS(=O)(=O)c2ccccc2CO)ccc1-n1cnc(C)c1 [Compound 121]
> 10 µM: [1] | [2] | [3] | [4] | [5]
